Measured values taken from patent US8686113B2 (priority 2009, dated 2014).
Like-named read-outs stand apart in the source and are kept apart here. No end group written: not given here.

How the values were obtained:
E. coli BL21 A1 = format: cell-based, Escherichia coli; settings: BL21, 20 h
Summary of the method: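 Broth microdilution in 1% TSB with twofold peptide series, final 128 μg/mL to 62.5 ng/mL, against 5×10^6 bacteria/mL stock suspension added 1:1. Incubated 20 h at 37 °C, growth read by absorbance at 595 nm; MIC is the lowest concentration with no growth, determined in triplicate.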

E. coli 045-849 SENTRY = settings: ¼ Muller-Hinton medium
Procedure: (§1) The minimum inhibitory concentrations (MIC) of the antimicrobial peptides and peptide derivatives were determined in microdilution assays. These used a continuous peptide dilution in sterile flat-bottomed 96-well microtiter plates (polystyrene, Greiner Bio-One GmbH, Frickenhausen, Germany) and a total volume of 100 μL per well. The aqueous peptide or peptidomimetic solutions were diluted with 1% TSB water, to obtain a final concentration of 256 μg/mL. 50 μL of the peptide or peptidomimetic solution was pipetted into the first well of each series and stirred. From this solution, 50 μL was transferred to the second well, stirred and again 50 μL was transferred to the next well, and so on. A double dilution series is obtained, beginning at 256 μg/mL in the first well to 125 ng/mL in the twelfth well. The bacteria, e.g. E. coli BL21 A1, were cultured overnight at 37° C. in nutrient broth (NB, Carl Roth GmbH+Co. KG, Karlsruhe, Germany). 50 μL of a 5×10^6 bacteria/mL suspension in 1% TSB was added to each well of the microtiter plate and thus a final concentration of the peptides or peptidomimetics from 128 μg/mL (well 1) to 62.5 ng/mL (well 12) was established in each series. The plates were incubated at 37° C. for 20 h and then the absorption was measured at 595 nm with a TECAN microtiter plate spectrophotometer (Tecan Trading AG, Mannedorf, Switzerland). The MIC values of all peptides and peptidomimetics were determined in triplicate. Sterile water was used as negative control.
(§2) The tests were in this case carried out in Mueller-Hinton medium (¼ concentrated), which is equivalent to 1% TSB.

E. coli ATCC BAA-457 = settings: ¼ Muller-Hinton medium
Procedure: as §1, §2

E. coli D31 J. Wilson = settings: ¼ Muller-Hinton medium
Procedure: as §1, §2

K. pneumoniae 012-3131 = tested on: K. pneumoniae 012-3131
Procedure: as §1, §2

K. pneumoniae ATCC 27799 = settings: ATCC 27799
Procedure: as §1, §2

[1] = tested on: K. pneumoniae K6 ATCC 700603; settings: ATCC 700603
Procedure: as §1, §2

[2] = tested on: P. aeruginosa 10 J. Wilson
Procedure: as §1, §2

P. aeruginosa 39324 = tested on: P. aeruginosa 39324
Procedure: as §1, §2

P. mirabilis ATCC 7002 = settings: ¼ Muller-Hinton medium
Procedure: as §1, §2

P. vulgaris ATCC 6896 = settings: ¼ Muller-Hinton medium
Procedure: as §1, §2

S. saprophyticus 15305 = tested on: S. saprophyticus 15305
Procedure: as §1, §2

[3] = tested on: S. typhimurium ATCC 14028
Procedure: as §1, §2

[4] = tested on: S. typhimurium ATCC 700408
Procedure: as §1, §2

[5] = tested on: S. typhimurium s5 (J. Weiser); settings: ¼ Muller-Hinton medium
Procedure: as §1, §2

[6] = Stability against bacterial proteases in E. coli lysate; format: in vitro ADME; settings: E. coli lysate with 0.5 mg/mL protein concentration, 37° C.
Procedure: For the bacterial lysate, 500 mL of nutrient broth (Carl Roth GmbH+Co. KG, Karlsruhe) was inoculated with E. coli BL21 A1 and incubated overnight at 37° C. 2×250 mL bacterial suspension were centrifuged for 25 min at 5000 rpm and 4° C. in a Beckman Avanti™ J-20-XP centrifuge with JLA-10.500 rotor (Beckman Coulter, Fullerton, U.S.A.). The pellets were each suspended in 30 mL PBS (pH 7.4) and centrifuged again in a Beckman Allegra™ 2IR centrifuge (Beckman Coulter, Fullerton, U.S.A.). The pellets were each suspended in 10 mL PBS and were disrupted with ultrasound (Vibra-cell™ microtip, Fisher Bioblock Scientific, Illkirch, France) 2×5 min (750 W; amplitude 40%; 2 s on/3 s off) on ice. The bacterial lysates were combined and 1 mL aliquots were centrifuged at 15400 rpm for 20 min at 4° C. (Beckman Allegra™). The supernatants were removed and stored at −20° C. The protein content of the bacterial lysate was determined by protein determination according to Bradford.
A solution of 0.15 μg/mL peptide in bacterial lysate with protein content of 1.5 mg/mL or 0.5 mg/mL was incubated at 37° C. After 0, 30, 60, 120, 240 or 360 min, 200 μL was taken from each and the proteins were precipitated with 50 μL of 15% trichloroacetic acid. Then it was incubated for 10 min at 4° C. and then centrifuged for 5 min at 13000 rpm in a Minispin desktop centrifuge. 210 μL was taken from the supernatant and neutralized with 1 mol/L sodium hydroxide solution. The intact peptide and the degradation products were analyzed by HPLC. 60 μL of 3% aqueous acetonitrile with 0.1% trifluoroacetic acid (TFA) was added to the solution and 250 μL of the mixture was injected. After chromatographic separation, the constituents were identified by MALDI-TOF-MS,
In order to investigate the stability against bacterial proteases, a lysate was prepared from an overnight culture of E. coli BL21 A1 and the peptides were incubated in it. Using Bradford protein determination, the protein concentration was adjusted to 0.5 or 1.5 mg/mL.

[7] = tested on: Escherichia coli DSM 10233
[8] = tested on: Klebsiella pneumoniae DSM 681
[9] = tested on: Pseudomonas aeruginosa DSM 3227
human erythrocytes = test: Hemolysis test; format: cell-based; settings: 1 h at 37° C., relative to Triton X-100
Description: Another possibility for investigating the cytotoxicity of the peptides and peptide derivatives is the hemolysis test. The hemolytic activity is investigated on human erythrocytes (Ryge T S & Hansen P R. Potent antibacterial lysine-peptoid hybrids identified from a positional scanning combinatorial library. Bioorganic & Medicinal Chemistry 14: 4444-51, 2006), which the Leipzig University Hospital (Germany) made available as human erythrocyte concentrate in sodium chloride-adenine-glucose-mannitol buffer (stored at 4° C.). The erythrocytes were centrifuged off at 1000 g and washed three times with ten times the volume of cold phosphate-buffered saline (PBS, pH 7.4). The erythrocytes were diluted to a final concentration of 1% in PBS. One hundred microliters of erythrocyte suspension was pipetted into each V-shaped well of a 96-well polypropylene microtiter plate (Greiner Bio-One GmbH). Then 100 μL of the peptides dissolved in PBS was added to each position, to obtain a dilution series from 600 μg/mL to 4.7 μg/mL in seven dilution steps. The microtiter plate was incubated at 37° C. for 1 h and then centrifuged at 1000*g. 100 μL was taken from the supernatant, transferred to a 96-well flat-bottomed polystyrene microtiter plate (Greiner Bio-One GmbH) and the absorption was determined at 405 nm in a Sunrise microtiter plate reader (Tecan Trading AG, Mannedorf, Switzerland), to evaluate the release of the heme group. PBS or 0.1% Triton X-100® ((p-tert-octylphenoxy) polyethoxyethanol; Fluka Chemie GmbH, Buchs, Switzerland) and melittin (SIGMA-Aldrich-Laborchemikalien, Taufkirchen, Germany) were used as negative or positive controls. All hemolysis tests were carried out twice independently as double determination and the degree of hemolysis was determined from the following equation (Park Y et al. A Leu-Lys-rich antimicrobial peptide: activity and mechanism. Biochimica et Biophysica Acta-Proteins and Proteomics 1645: 172-82, 2003): Epeptide−EPBS)/ETriton−EPBS)×100% E=extinction at 405 nm

[10] = mouse, serum, Half-life in 25% mouse serum, 25% aqueous mouse serum, 37° C., 75 μg/mL peptide
[11] = mouse, serum
[12] = background statement; cited from earlier work
[13] = E. coli lysate with 0.5 mg/mL protein concentration; settings: E. coli BL21 A1, 37° C., up to 360 min

not cleaved [13]	Substance	MIC E. coli BL21 A1 (E. coli BL21 A1) [µg/mL]	MIC E. coli 045-849 SENTRY (E. coli 045-849 SENTRY) [µg/mL]	MIC E. coli SEQ 102ATCC # BAA-4 57 (E. coli ATCC BAA-457) [µg/mL]	MIC E. coli D31 J. Wilson (E. coli D31 J. Wilson) [µg/mL]	MIC K. pneumoniae 012-3131 (K. pneumoniae 012-3131) [µg/mL]	MIC K. pneumoniae ATCC 27799 (K. pneumoniae ATCC 27799) [µg/mL]	MIC K. pneumoniae K6 ATCC 700603 [1] [µg/mL]	MIC P. aeruginosa 10 J. Wilson [2] [µg/mL]	MIC P. aeruginosa 39324 (P. aeruginosa 39324) [µg/mL]	MIC P. mirabilis ATCC 7002 (P. mirabilis ATCC 7002)	MIC P. vulgaris ATCC 6896 (P. vulgaris ATCC 6896)	MIC S. typhimurium ATCC 14028 [3] [µg/mL]	MIC S. typhimurium ATCC 700408 [4] [µg/mL]	MIC S. typhimurium s5 (J. Weiser) [5] [µg/mL]	further results
–	H-GKPRPYSPRPTSHPRPIRV-OH [compound 89]	4	2	2	4	4	8	8	16	32	>	>	8	0.5	1	MIC S. saprophyticus 15305 (S. saprophyticus 15305; 15305): >64 µg/mL
–	H-GNNRPVYIPQPRPPHPRL-OH [compound 87]	2	0.5	1	1	16	4	16	32	64	>	>	0.5	0.13	0.5	MIC S. saprophyticus 15305 (S. saprophyticus 15305; ¼ Muller-Hinton medium): >
–	H-VDKPPYLPRPRPPRRIYNR-NH2 [compound 18]	–	4	4	–	–	16	8	8	–	–	–	2	–	4	half-life [6]: 1 h; MIC E. coli DSM 10233 [7]: 16 µg/mL; MIC K. pneumoniae DSM 681 [8]: 4 µg/mL; MIC P. aeruginosa DSM 3227 [9]: >32 µg/mL; Degree of hemolysis [%] at 600 μg/mL (human erythrocytes): 1.5%; half-life [10]: 1 h; half-life [11]: 0.5 h
–	VDKGSYLPRPTPPRPIYNRN-NH2 [SEQ ID NO. 91]	–	–	–	–	–	–	–	–	–	–	–	–	–	–	half-life in mammalian serum (25%) [12]: 2 h
>240 min, 90%	VDKPPYLPRPRP-4tHyp-R-4tHyp-Tle-YNO-NH2	–	–	–	–	–	–	–	–	–	–	–	–	–	–	–
>240 min, 90%	VDKPPYLPRPRPPRO-Tle-YNO-NH2	–	–	–	–	–	–	–	–	–	–	–	–	–	–	–
